Activity calls are given as the source filed them. The rule behind the calls is not given here.
How the values were obtained:
[1] = Drug uptake in tumor of mouse xenografted with human MV4-11 cells at 30 mg/kg, iv single dose measured after 24 hrs by LC-MS/MS analysis; assay type: ADME, organism-based, Neoplasm; settings: read-out: Drug uptake
[2] = Plasma concentration in mouse xenografted with human MV4-11 cells at 30 mg/kg, iv single dose measured after 96 hrs by LC-MS/MS analysis; assay type: ADME, organism-based
[3] = Antiproliferative activity against human […] NCI-H1975 cells assessed as inhibition of cell growth measured after 7 days by WST-8 assay; assay type: functional; settings: NCI-H1975, 168 h, time 7 day
Cytochrome P450 3A4 = Cytochrome P450 3A4 (Homo sapiens, UniProt P08684); experiment: Inhibition of CYP3A4 (unknown origin) using testosterone as substrate; assay type: ADME
Sequence of Cytochrome P450 3A4 (P08684 whole entry): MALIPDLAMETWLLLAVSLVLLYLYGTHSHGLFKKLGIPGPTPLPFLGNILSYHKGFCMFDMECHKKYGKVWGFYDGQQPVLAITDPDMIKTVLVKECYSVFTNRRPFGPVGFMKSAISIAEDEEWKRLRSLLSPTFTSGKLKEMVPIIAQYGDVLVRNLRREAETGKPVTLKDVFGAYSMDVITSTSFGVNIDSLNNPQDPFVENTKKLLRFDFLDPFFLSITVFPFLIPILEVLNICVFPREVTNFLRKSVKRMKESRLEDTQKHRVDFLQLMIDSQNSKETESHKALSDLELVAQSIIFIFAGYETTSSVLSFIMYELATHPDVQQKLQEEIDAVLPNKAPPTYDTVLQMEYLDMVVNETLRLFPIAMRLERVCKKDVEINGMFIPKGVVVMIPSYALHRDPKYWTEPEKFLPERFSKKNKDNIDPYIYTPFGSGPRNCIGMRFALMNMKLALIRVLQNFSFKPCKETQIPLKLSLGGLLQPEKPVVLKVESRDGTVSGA

[4] = Plasma concentration in mouse xenografted with human MV4-11 cells at 30 mg/kg, iv single dose measured after 168 hrs by LC-MS/MS analysis; assay type: ADME, organism-based
[5] = Plasma concentration in SCID mouse xenografted with human NCI-H838 cells at 10 mg/kg, iv measured after 96 hrs by LC-MS/MS analysis; assay type: ADME, organism-based
NCI-H838 = experiment: In vivo anti-tumor activity against SMARCA4-deficient human NCI-H838 cells xenografted in SCID mouse assessed as assessed as inhibition of tumor growth at 10 to 30 mg/kg, iv weekly once; assay type: functional, organism-based; settings: dose 10-30 mg/kg
[6] = Drug uptake in tumor of mouse xenografted with human H838 cells at 10 mg/kg, iv single dose measured after 168 hrs by LC-MS/MS analysis; assay type: ADME, organism-based, Neoplasm, NCI-H838; settings: read-out: Drug uptake
Cytochrome P450 2D6 = Cytochrome P450 2D6 (Homo sapiens, UniProt P10635); experiment: Inhibition of CYP2D6 (unknown origin); assay type: ADME
Sequence of Cytochrome P450 2D6 (P10635 whole entry): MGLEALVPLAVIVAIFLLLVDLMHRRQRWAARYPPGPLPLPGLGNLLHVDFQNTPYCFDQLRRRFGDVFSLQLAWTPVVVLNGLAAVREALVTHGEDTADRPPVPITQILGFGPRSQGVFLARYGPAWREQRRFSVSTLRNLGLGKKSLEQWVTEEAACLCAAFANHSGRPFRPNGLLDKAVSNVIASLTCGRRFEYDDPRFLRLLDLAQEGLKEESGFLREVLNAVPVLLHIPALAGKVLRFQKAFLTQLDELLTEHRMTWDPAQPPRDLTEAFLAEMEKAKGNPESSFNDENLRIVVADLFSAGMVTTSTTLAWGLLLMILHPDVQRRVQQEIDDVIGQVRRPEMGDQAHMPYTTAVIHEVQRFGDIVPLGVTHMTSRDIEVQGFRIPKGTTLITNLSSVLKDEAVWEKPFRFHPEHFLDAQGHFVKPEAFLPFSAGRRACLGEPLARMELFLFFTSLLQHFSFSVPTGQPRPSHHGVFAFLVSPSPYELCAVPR

[7] = Volume of distribution of steady state in mouse at 1 mg/kg, iv; assay type: ADME, organism-based; settings: in vivo, read-out: Vdss
[8] = Plasma stability in rat plasma assessed as half life; assay type: ADME, cell-free
[9] = Toxicity in SCID mouse assessed as toxicity signs at 50 mg/kg, iv twice a week; assay type: organism-based; settings: in vivo
Cytochrome P450 2C9 = Cytochrome P450 2C9 (Homo sapiens, UniProt P11712); experiment: Inhibition of CYP2C9 (unknown origin); assay type: ADME
Sequence of Cytochrome P450 2C9 (P11712 whole entry): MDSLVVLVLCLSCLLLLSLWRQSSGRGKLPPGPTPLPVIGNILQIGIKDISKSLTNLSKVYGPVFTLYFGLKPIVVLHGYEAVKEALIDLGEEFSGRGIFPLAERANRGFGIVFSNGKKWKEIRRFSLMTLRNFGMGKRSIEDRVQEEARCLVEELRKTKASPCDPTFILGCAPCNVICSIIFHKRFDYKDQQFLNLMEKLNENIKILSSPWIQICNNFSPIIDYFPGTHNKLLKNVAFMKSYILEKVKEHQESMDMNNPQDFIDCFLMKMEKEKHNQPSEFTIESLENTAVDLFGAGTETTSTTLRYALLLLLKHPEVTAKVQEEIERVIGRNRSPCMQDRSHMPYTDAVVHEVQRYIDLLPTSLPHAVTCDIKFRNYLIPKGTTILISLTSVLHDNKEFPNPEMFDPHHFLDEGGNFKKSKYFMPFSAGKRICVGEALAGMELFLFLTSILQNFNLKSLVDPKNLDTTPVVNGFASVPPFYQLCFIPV

[10] = Drug uptake in tumor of mouse xenografted with human MV4-11 cells at 30 mg/kg, iv single dose measured after 168 hrs by LC-MS/MS analysis; assay type: ADME, organism-based, Neoplasm; settings: read-out: Drug uptake
[11] = Toxicity in SCID mouse xenografted with human H838 cells assessed as toxicity signs at 30 mg/kg, iv measured after 3 weeks; assay type: organism-based; settings: in vivo, 504 h
[12] = Drug uptake in tumor of human NCI-H838 cells xenografted SCID mouse model at 10 mg/kg, iv measured after 24 hrs by LC-MS/MS analysis; assay type: ADME, organism-based, Neoplasm; settings: read-out: Drug uptake
NCI-H1792 = experiment: Antiproliferative activity against human SMARCA4-wild type NCI-H1792 cells assessed as inhibition of cell growth measured after 7 days by WST-8 assay; assay type: functional; settings: NCI-H1792, 168 h, time 7 day
Cytochrome P450 2B6 = molecular target: T1, Cytochrome P450 2B6 (Homo sapiens, UniProt P20813); experiment: Inhibition of CYP2B6 (unknown origin); assay type: ADME
T1 sequence (P20813 whole entry): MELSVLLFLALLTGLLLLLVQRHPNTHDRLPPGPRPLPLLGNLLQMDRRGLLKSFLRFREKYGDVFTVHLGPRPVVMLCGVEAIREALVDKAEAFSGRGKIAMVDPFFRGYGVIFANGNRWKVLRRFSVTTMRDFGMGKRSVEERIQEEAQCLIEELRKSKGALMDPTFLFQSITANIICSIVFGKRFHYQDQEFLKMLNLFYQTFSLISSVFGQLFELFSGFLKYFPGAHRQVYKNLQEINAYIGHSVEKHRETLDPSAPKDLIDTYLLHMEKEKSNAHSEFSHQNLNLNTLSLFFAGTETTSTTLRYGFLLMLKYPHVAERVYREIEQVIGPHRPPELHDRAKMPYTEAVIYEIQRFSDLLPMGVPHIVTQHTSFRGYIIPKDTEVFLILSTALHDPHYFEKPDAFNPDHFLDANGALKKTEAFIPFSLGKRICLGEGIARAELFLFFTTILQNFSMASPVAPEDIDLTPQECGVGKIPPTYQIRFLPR

[13] = Antiproliferative activity against human SMARCA4-deficient NCI-H1944 cells assessed as inhibition of cell growth measured after 7 days by WST-8 assay; assay type: functional; settings: NCI-H1944, 168 h, time 7 day
Cytochrome P450 2C8 = molecular target: T2, Cytochrome P450 2C8 (Homo sapiens, UniProt P10632); experiment: Inhibition of CYP2C8 (unknown origin); assay type: ADME
T2 sequence (P10632 whole entry): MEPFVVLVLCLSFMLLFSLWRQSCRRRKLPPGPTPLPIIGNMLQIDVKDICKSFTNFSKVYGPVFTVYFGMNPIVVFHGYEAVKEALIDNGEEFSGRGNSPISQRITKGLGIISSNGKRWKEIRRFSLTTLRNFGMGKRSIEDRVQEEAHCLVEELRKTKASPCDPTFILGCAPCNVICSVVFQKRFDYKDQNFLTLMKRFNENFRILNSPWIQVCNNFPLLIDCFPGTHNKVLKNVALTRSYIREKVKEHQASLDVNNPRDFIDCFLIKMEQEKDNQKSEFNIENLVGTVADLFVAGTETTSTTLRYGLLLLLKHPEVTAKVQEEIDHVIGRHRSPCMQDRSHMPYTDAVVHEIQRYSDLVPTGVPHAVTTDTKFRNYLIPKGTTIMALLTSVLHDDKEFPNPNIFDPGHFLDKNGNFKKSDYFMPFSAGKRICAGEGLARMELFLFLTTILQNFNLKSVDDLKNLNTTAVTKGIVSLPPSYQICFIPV

[14] = Metabolic stability in mouse liver microsomes assessed as half life; assay type: ADME, Microsome
Cytochrome P450 1A2 = molecular target: T3, Cytochrome P450 1A2 (Homo sapiens, UniProt P05177); experiment: Inhibition of CYP1A2 (unknown origin); assay type: ADME
T3 sequence (P05177 whole entry): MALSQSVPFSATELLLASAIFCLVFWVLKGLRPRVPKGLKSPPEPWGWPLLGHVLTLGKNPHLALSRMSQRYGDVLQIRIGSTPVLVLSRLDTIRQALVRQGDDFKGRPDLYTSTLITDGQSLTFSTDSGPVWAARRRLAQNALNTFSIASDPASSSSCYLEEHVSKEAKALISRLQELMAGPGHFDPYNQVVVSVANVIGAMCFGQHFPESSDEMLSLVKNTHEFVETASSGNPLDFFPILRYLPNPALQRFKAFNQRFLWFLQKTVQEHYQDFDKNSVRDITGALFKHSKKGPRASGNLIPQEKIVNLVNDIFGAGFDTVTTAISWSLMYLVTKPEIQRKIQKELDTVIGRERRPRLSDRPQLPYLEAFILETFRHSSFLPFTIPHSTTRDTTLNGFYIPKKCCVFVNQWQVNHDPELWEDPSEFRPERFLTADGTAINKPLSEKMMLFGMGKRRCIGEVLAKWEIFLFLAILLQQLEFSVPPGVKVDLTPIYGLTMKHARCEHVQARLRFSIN

[15] = Plasma concentration in mouse xenografted with human H838 cells at 10 mg/kg, iv single dose measured after 48 hrs by LC-MS/MS analysis; assay type: ADME, organism-based, NCI-H838
[16] = Plasma stability in human plasma assessed as half life; assay type: ADME, cell-free

Cc1ncsc1-c1ccc([C@H](CN2CCOCC2)NC(=O)[C@@H]2C[C@@H](O)CN2C(=O)[C@@H](n2cc([C@H]3CC[C@H](CN4CCC(c5ccc6c(c5)-n5c(nc(=O)c7c(Cl)cccc75)C65CCCCC5)CC4)CC3)nn2)C(C)(C)C)cc1
concentration at 24 h [1]: 2290 ng/mL | concentration at 96 h [2]: 56 ng/mL | GI50 [3]: > 10 µM | IC50 (Cytochrome P450 3A4): > 100 µM | concentration at 168 h [4]: 19 ng/mL | concentration at 96 h [5]: 6.8 ng/mL | Activity (NCI-H838): Active | concentration at 168 h [6]: 169 ng/mL | IC50 (Cytochrome P450 2D6): > 100 µM | Vd [7]: 1.9 L/kg | half-life [8]: > 2 h | Activity [9]: Non-toxic | IC50 (Cytochrome P450 2C9): > 100 µM | concentration at 168 h [10]: 932 ng/mL | Activity [11]: Non-toxic | concentration at 24 h [12]: 400 ng/mL | GI50 (NCI-H1792): > 10 µM | IC50 (Cytochrome P450 2B6): > 100 µM | GI50 [13]: 0.0098 µM | IC50 (Cytochrome P450 2C8): > 100 µM | half-life [14]: > 1 h | IC50 (Cytochrome P450 1A2): > 100 µM | concentration at 48 h [15]: 15 ng/mL | half-life [16]: > 2 h
